IC50 data for 37 compounds are collected here from ChEMBL document CHEMBL3232855, “The discovery of N-((2H-tetrazol-5-yl)methyl)-4-((R)-1-((5r,8R)-8-(tert-butyl)-3-(3,5-dichlorophenyl)-2-oxo-1,4-diazaspiro[4.5]dec-3-en-1-yl)-4,4-dimethylpentyl)benzamide (SCH 900822): a potent and selective glucagon receptor antagonist” (J Med Chem, 2014).

Assay [1] deals with T1, Glucagon receptor (Homo sapiens, UniProt P47871). Briefly: Antagonist activity at human GCGR expressed in CHO cells assessed as inhibition of glucagon-stimulated cAMP production preincubated for 30 mins followed by glucagon induction measured after 45 mins by LANCE assay. The assay is classed as functional, cell-based. On the technique in general: Changes in cAMP serve as a functional read-out for many G protein-coupled receptors.

Assay [2] has as its target T1, Glucagon receptor. Briefly: biochemical. Type of assay: cell-based, CHO.
Description: Displacement of [125I]-glucagon from recombinant human GCGR expressed in CHO cells after 60 mins by scintillation counting analysis
Assay [3] concerns the target Glucagon receptor (Mus musculus, UniProt Q61606). The assay is classed as cell membranes, Liver, Membrane.
Description: Displacement of [125I]-glucagon from GCGR in mouse liver membranes after 60 mins by scintillation counting analysis
Assay [4] has as its target Glucagon-like peptide 1 receptor (Homo sapiens, UniProt P43220). The assay is described as follows: Antagonist activity at human GLP-1R expressed in CHO cells assessed as inhibition of GLP-1-stimulated cAMP production preincubated for 30 mins followed by GLP-1 induction measured after 45 mins by LANCE assay. Type of assay: functional, cell-based.

T1 sequence (P47871 whole entry): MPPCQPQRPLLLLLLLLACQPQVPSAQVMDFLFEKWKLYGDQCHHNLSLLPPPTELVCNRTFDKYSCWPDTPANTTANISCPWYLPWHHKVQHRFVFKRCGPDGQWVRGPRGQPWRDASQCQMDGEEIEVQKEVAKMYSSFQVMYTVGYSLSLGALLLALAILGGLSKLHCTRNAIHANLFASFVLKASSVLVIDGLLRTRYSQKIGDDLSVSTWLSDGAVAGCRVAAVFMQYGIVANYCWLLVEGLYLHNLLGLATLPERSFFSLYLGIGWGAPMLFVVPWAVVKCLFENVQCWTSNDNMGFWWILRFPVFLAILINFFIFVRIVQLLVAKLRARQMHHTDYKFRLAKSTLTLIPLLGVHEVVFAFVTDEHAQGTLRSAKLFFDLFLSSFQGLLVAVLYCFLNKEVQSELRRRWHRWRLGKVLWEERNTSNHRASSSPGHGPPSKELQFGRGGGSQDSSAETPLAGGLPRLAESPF
Chain of Glucagon-like peptide 1 receptor (P43220 whole entry): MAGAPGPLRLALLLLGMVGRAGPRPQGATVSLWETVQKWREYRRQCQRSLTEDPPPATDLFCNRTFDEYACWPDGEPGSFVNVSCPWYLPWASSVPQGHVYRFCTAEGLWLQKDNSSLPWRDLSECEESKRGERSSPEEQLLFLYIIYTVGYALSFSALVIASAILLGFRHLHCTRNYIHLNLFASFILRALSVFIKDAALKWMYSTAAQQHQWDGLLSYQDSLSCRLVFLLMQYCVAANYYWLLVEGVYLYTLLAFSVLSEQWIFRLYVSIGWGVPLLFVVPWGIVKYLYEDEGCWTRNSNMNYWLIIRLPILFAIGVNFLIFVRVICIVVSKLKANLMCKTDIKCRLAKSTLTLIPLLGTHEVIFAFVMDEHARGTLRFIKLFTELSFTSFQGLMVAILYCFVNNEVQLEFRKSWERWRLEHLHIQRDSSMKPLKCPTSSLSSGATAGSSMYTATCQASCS
Chain of Glucagon receptor (Mus musculus, UniProt Q61606) (Q61606 whole entry): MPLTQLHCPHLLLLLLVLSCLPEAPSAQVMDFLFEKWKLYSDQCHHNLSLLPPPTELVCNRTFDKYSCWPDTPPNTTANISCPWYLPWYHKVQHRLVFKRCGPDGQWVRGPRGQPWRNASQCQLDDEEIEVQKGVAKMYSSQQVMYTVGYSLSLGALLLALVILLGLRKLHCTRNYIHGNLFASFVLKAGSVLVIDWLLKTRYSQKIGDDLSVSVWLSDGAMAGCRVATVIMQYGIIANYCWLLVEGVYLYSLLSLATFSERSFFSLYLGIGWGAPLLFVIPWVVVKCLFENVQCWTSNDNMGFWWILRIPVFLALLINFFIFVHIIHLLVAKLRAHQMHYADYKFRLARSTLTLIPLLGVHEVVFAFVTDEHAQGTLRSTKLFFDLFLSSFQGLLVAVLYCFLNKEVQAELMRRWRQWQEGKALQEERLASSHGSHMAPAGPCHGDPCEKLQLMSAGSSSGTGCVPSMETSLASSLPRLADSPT

Broadly, the IC50 is the concentration that gives 50% inhibition. As for `CC(C)[C@H](c1ccc(C(=O)NCc2nn[nH]n2)cc1)N1C(=O)C(c2cc(Cl)cc(Cl)c2)=N[C@]12CC[C@@H](C(C)(C)C)CC2`, at Glucagon receptor [1], the IC50 amounted to 2.2 µM.
`CC(C)CC[C@H](c1ccc(C(=O)NCc2nn[nH]n2)cc1)N1C(=O)C(c2cc(Cl)cc(Cl)c2)=N[C@]12CC[C@@H](C(C)(C)C)CC2`: the IC50 at Glucagon receptor [1] was 0.15 µM; at Glucagon receptor [2], 0.022 µM; on Glucagon receptor [3], 0.28 µM; in assay [4], more than 10 µM.
As for `C[C@H](c1ccc(C(=O)NCCC(=O)O)cc1)N1C(=O)C(c2ccc(F)cc2)=N[C@]12CC[C@@H](C(C)(C)C)CC2`, the IC50 on Glucagon receptor [1] was determined as 0.43 µM; on Glucagon receptor [2], 0.085 µM; against Glucagon receptor [3], 2.5 µM; in assay [4], 7.8 µM.
On the same counts, the results for `CC(C)(C)CC[C@H](c1ccc(C(=O)NCc2nn[nH]n2)cc1)N1C(=O)C(c2cc(F)cc(Cl)c2)=N[C@]12CC[C@@H](C(C)(C)C)CC2` are 0.042 µM, 0.01 µM, 0.16 µM and more than 10 µM.
Take `C[C@H](NC(=O)c1ccc([C@@H](CCC(C)(C)C)N2C(=O)C(c3cc(Cl)cc(Cl)c3)=N[C@]23CC[C@@H](C(C)(C)C)CC3)cc1)c1nnn[nH]1`: the IC50 (at Glucagon receptor [1]; in assay [4]) was more than 10 µM each time.
Turning to `CC(C)(C)[C@H]1CC[C@]2(CC1)N=C(c1cc(Cl)cc(Cl)c1)C(=O)N2[C@@H](c1ccc(C(=O)NCc2nn[nH]n2)cc1)C1CC1`, the IC50 was 0.54 µM at Glucagon receptor [1], 0.072 µM at Glucagon receptor [2], 0.75 µM against Glucagon receptor [3] and more than 10 µM in assay [4].
As for `CC(C)(C)CC[C@H](c1ccc(C(=O)Nc2nnn[nH]2)cc1)N1C(=O)C(c2cc(Cl)cc(Cl)c2)=N[C@]12CC[C@@H](C(C)(C)C)CC2`, the figures for the IC50 (at Glucagon receptor [1]; against Glucagon receptor [2]; in assay [4]) were 0.85 µM, 0.6 µM and 0.14 µM, respectively.
As to `C[C@H](CC(=O)O)NC(=O)c1ccc([C@@H](CCC(C)(C)C)N2C(=O)C(c3cc(Cl)cc(Cl)c3)=N[C@]23CC[C@@H](C(C)(C)C)CC3)cc1`, the IC50 at Glucagon receptor [1] was 0.53 µM; against Glucagon receptor [2], 0.12 µM; on Glucagon receptor [3], 6.1 µM; in assay [4], more than 10 µM.
On to `CC(C)(C)CC[C@H](c1ccc(C(=O)NCc2nn[nH]n2)cc1)N1C(=O)C(c2cccc(C(F)(F)F)c2)=N[C@]12CC[C@@H](C(C)(C)C)CC2`, for which the 50% inhibitory concentration (IC50) on Glucagon receptor [1] was 0.18 µM; against Glucagon receptor [2], 0.013 µM; against Glucagon receptor [3], 0.14 µM; in assay [4] it was more than 10 µM.
With `CC[C@H]1CC[C@]2(CC1)N=C(c1cc(Cl)cc(Cl)c1)C(=O)N2[C@H](CCC(C)(C)C)c1ccc(C(=O)NCc2nn[nH]n2)cc1`, the IC50 on Glucagon receptor [1] was 0.066 µM; on Glucagon receptor [2], 0.044 µM; in assay [4], more than 10 µM.
With `C[C@H](c1ccc(C(=O)NCCC(=O)O)cc1)N1C(=O)C(c2ccc(C(F)(F)F)cc2)=N[C@]12CC[C@@H](C(C)(C)C)CC2`, the IC50 was 0.91 µM on Glucagon receptor [1], 0.17 µM against Glucagon receptor [2], 2.8 µM on Glucagon receptor [3] and more than 10 µM in assay [4].
For `C[C@H](c1ccc(C(=O)NCCC(=O)O)cc1)N1C(=O)C(c2cc(F)cc(Cl)c2)=N[C@]12CC[C@@H](C(C)(C)C)CC2`, the concentration for half-maximal inhibition (IC50) came to 0.11 µM on Glucagon receptor [1], 0.006 µM at Glucagon receptor [2], 0.81 µM against Glucagon receptor [3] and 5.6 µM in assay [4].
With `C[C@H](c1ccc(C(=O)NCCC(=O)O)cc1)N1C(=O)C(c2cccc(C(F)(F)F)c2)=N[C@]12CC[C@@H](C(C)(C)C)CC2`, the IC50 turned out to be 0.28 µM at Glucagon receptor [1], 0.72 µM against Glucagon receptor [2], 2.2 µM on Glucagon receptor [3] and 6.3 µM in assay [4].
As to `C[C@H](c1ccc(C(=O)NCCC(=O)O)cc1)N1C(=O)C(c2ccccc2)=N[C@]12CC[C@@H](C(C)(C)C)CC2`, the IC50 on Glucagon receptor [1] is 0.63 µM; against Glucagon receptor [2], 0.36 µM; against Glucagon receptor [3], 5.3 µM; in assay [4] it was more than 10 µM.
In the case of `CC(Cc1ccc(C(=O)NCCC(=O)O)cc1)N1C(=O)C(c2cc(Cl)cc(Cl)c2)=N[C@]12CC[C@@H](C(C)(C)C)CC2` (stereo partly drawn), the IC50 turned out to be 0.14 µM on Glucagon receptor [1], 0.19 µM against Glucagon receptor [2], 1.3 µM on Glucagon receptor [3] and 3.1 µM in assay [4].
Regarding `CC(C)(C)CC[C@H](c1ccc(C(=O)NCc2nn[nH]n2)cc1)N1C(=O)C(c2ccc(C(F)(F)F)cc2)=N[C@]12CC[C@@H](C(C)(C)C)CC2`, the IC50 is 0.16 µM at Glucagon receptor [1], 0.007 µM at Glucagon receptor [2], 0.19 µM against Glucagon receptor [3] and more than 10 µM in assay [4].
As to `CCC[C@H](c1ccc(C(=O)NCc2nn[nH]n2)cc1)N1C(=O)C(c2cc(Cl)cc(Cl)c2)=N[C@]12CC[C@@H](C(C)(C)C)CC2`, the IC50 was 0.22 µM at Glucagon receptor [1], 0.055 µM against Glucagon receptor [2], 0.5 µM at Glucagon receptor [3] and more than 10 µM in assay [4].
On the same counts, the results for `C[C@H](c1ccc(C(=O)NCCC(=O)O)cc1)N1C(=O)C(c2ccc(F)c(Cl)c2)=N[C@]12CC[C@@H](C(C)(C)C)CC2` are 0.44 µM, 0.044 µM, 2.3 µM and 4.3 µM.
Turning to `C[C@H](c1ccc(C(=O)NCCC(=O)O)cc1)N1C(=O)C(c2ccccc2F)=N[C@]12CC[C@@H](C(C)(C)C)CC2`, the IC50 on Glucagon receptor [1] was 0.35 µM; at Glucagon receptor [2], 1.1 µM; on Glucagon receptor [3] it was more than 10 µM; in assay [4], more than 10 µM.
With `C[C@H](c1ccc(C(=O)Nc2nnn[nH]2)cc1)N1C(=O)C(c2cc(Cl)cc(Cl)c2)=N[C@]12CC[C@@H](C(C)(C)C)CC2`, the IC50 at Glucagon receptor [1] was 0.75 µM; at Glucagon receptor [2], 0.47 µM; at Glucagon receptor [3], more than 10 µM; in assay [4], 0.8 µM.
The corresponding values for `CCCC[C@H](c1ccc(C(=O)NCc2nn[nH]n2)cc1)N1C(=O)C(c2cc(Cl)cc(Cl)c2)=N[C@]12CC[C@@H](C(C)(C)C)CC2` are 0.38 µM, 0.023 µM, 0.42 µM and more than 10 µM.
For the compound `CC(C)(C)CC[C@H](c1ccc(C(=O)NCc2nn[nH]n2)cc1)N1C(=O)C(c2cnccc2C(F)(F)F)=N[C@]12CC[C@@H](C(C)(C)C)CC2`, the IC50 is 1.2 µM at Glucagon receptor [1], 0.022 µM against Glucagon receptor [2], 0.096 µM at Glucagon receptor [3] and more than 10 µM in assay [4].
With `C[C@@H](NC(=O)c1ccc([C@@H](CCC(C)(C)C)N2C(=O)C(c3cc(Cl)cc(Cl)c3)=N[C@]23CC[C@@H](C(C)(C)C)CC3)cc1)c1nnn[nH]1`, the values for the IC50 (on Glucagon receptor [1]; in assay [4]) were 4.5 µM and more than 10 µM, respectively.
On the same counts, the results for `CC(C)(C)CC[C@H](c1ccc(C(=O)NCCS(=O)(=O)O)cc1)N1C(=O)C(c2cc(Cl)cc(Cl)c2)=N[C@]12CC[C@@H](C(C)(C)C)CC2` are 8.5 µM and more than 10 µM.
`C[C@@H](c1ccc(C(=O)NCCC(=O)O)cc1)N1C(=O)C(c2cc(Cl)cc(Cl)c2)=N[C@]12CC[C@@H](C(C)(C)C)CC2`: the results for the IC50 (on Glucagon receptor [1]; in assay [4]) were 5.1 µM and more than 10 µM, respectively.
For `CC(C)(C)CC[C@H](c1ccc(C(=O)NCc2nn[nH]n2)cc1)N1C(=O)C(c2cc(Cl)cc(Cl)c2)=NC1(C)C`, the IC50 in assay [4] is more than 10 µM.
With `CC(C)(C)CC[C@H](c1ccc(C(=O)NCc2nn[nH]n2)cc1)N1C(=O)C(c2ncccc2C(F)(F)F)=N[C@]12CC[C@@H](C(C)(C)C)CC2`, the IC50 at Glucagon receptor [1] is 1.6 µM; in assay [4], more than 10 µM.
On to `C[C@@H](CC(=O)O)NC(=O)c1ccc([C@@H](CCC(C)(C)C)N2C(=O)C(c3cc(Cl)cc(Cl)c3)=N[C@]23CC[C@@H](C(C)(C)C)CC3)cc1`, for which the IC50 (on Glucagon receptor [1]; in assay [4]) was more than 10 µM throughout.
Consider `CC(C)(C)CC[C@H](c1ccc(C(=O)NCc2nn[nH]n2)cc1)N1C(=O)C(c2cc(Cl)cc(Cl)c2)=N[C@]12CC[C@@H](C)CC2`, for which the IC50 is 0.26 µM on Glucagon receptor [1], 0.036 µM at Glucagon receptor [2] and more than 10 µM in assay [4].
Regarding `COc1cccc(C2=N[C@]3(CC[C@@H](C(C)(C)C)CC3)N([C@H](CCC(C)(C)C)c3ccc(C(=O)NCc4nn[nH]n4)cc3)C2=O)c1`, the IC50 on Glucagon receptor [1] is 0.23 µM; against Glucagon receptor [2], 0.015 µM; in assay [4] it was more than 10 µM.
Take `COc1ccc(C2=N[C@]3(CC[C@@H](C(C)(C)C)CC3)N([C@H](CCC(C)(C)C)c3ccc(C(=O)NCc4nn[nH]n4)cc3)C2=O)cc1`: the IC50 was 0.36 µM on Glucagon receptor [1], 0.026 µM at Glucagon receptor [2] and more than 10 µM in assay [4].
For `CC(C)(C)CC[C@H](c1ccc(C(=O)NCCCC(=O)O)cc1)N1C(=O)C(c2cc(Cl)cc(Cl)c2)=N[C@]12CC[C@@H](C(C)(C)C)CC2`, the IC50 on Glucagon receptor [1] was 0.35 µM; against Glucagon receptor [2], 0.27 µM; in assay [4], more than 10 µM.
Turning to `CC(C)(C)CC[C@H](c1ccc(C(=O)NC[C@@H](O)C(=O)O)cc1)N1C(=O)C(c2cc(Cl)cc(Cl)c2)=N[C@]12CC[C@@H](C(C)(C)C)CC2` (mixture of isomers), the results for the IC50 (at Glucagon receptor [1]; against Glucagon receptor [2]; in assay [4]) were 0.4 µM, 0.149 µM and more than 10 µM, respectively.
For `CC(C)(C)CC[C@H](c1ccc(C(=O)NCc2nn[nH]n2)cc1)N1C(=O)C(c2cc(Cl)cc(Cl)c2)=NC12CCCCC2`, the IC50 was 0.51 µM at Glucagon receptor [1], 0.195 µM on Glucagon receptor [2] and more than 10 µM in assay [4].
As for `CC(C)(C)CC[C@H](c1ccc(C(=O)NC[C@H](O)C(=O)O)cc1)N1C(=O)C(c2cc(Cl)cc(Cl)c2)=N[C@]12CC[C@@H](C(C)(C)C)CC2`, the values for the IC50 (on Glucagon receptor [1]; on Glucagon receptor [2]; in assay [4]) were 0.37 µM, 0.086 µM and more than 10 µM, respectively.
As to `CC(C)(C)CC[C@H](c1ccc(C(=O)NCCC2=NNNN2)cc1)N1C(=O)C(c2cc(Cl)cc(Cl)c2)=N[C@]12CC[C@@H](C(C)(C)C)CC2`, the values for the IC50 (on Glucagon receptor [1]; on Glucagon receptor [2]; in assay [4]) were 0.89 µM, 0.065 µM and more than 10 µM, respectively.
With `CC(C)(C)CC[C@H](c1ccc(C(=O)NCC(=O)O)cc1)N1C(=O)C(c2cc(Cl)cc(Cl)c2)=N[C@]12CC[C@@H](C(C)(C)C)CC2`, the IC50 at Glucagon receptor [1] is 2.7 µM; in assay [4], more than 10 µM.
